Like-named read-outs stand apart in the source and are kept apart here. Bounds are passed on as bounds.

The subject of series [1] is nitric oxide (NO) production in LPS-induced RAW 264.7 cells. In words: Inhibition of nitric oxide production in LPS-induced RAW 264.7 cells (Griess reagent). The format is cell-based. The settings on record: for IC50: Mus musculus; for nitric oxide inhibition activity compared with indomethacin: in words. The method, then:
(§1) The compounds were dissolved in DMSO to prepare their stock solutions at a concentration of 50 mM. Then, they were pipetted to mix in the culture medium to make the maximum tested concentration of 200 µM containing 0.4% DMSO. Then, the 200 µM tested solution was further diluted with a culture medium, giving the concentration series of 200, 100, 50, and 25 μM (2-fold dilution). The working concentrations of the test compounds [25, 50, 100, and 200 μM] were used to treat cells.
(§2) Raw264.7 cells were seeded at a density of 5 × 10^4 cells/well in a 96-well plate. The cells were pre-treated with various concentrations of samples for 24 h. Cells were induced with 100 ng/mL LPS for 24 h. The culture supernatant was collected for NO production analysis, and cells were further examined for their viability.
The NO production was measured using a Griess reagent kit (Invitrogen, Thermo Fisher Scientific, Waltham, MA, USA). Ninety µL of culture media were mixed with 10 µL of Griess reagent and incubated at room temperature for 30 min, and then the NO concentration was measured at 540 nm using the microplate reader. The percentage of NO production was calculated as Equation (1). (1) %NO production = A/B × 100
A: The concentration of the nitric oxide in the cells induced by LPS and with sample pre-treatment [LPS (+), sample (+)].
B: The concentration of nitric oxide in the cells induced by LPS without sample pre-treatment [LPS (+), sample (−)].
The NO inhibitory activity was expressed as half the maximum (IC50) of the inhibitory concentration calculated using GraphPad Prism 9.

The test system of the next series is RAW 264.7 cells. The series is described as follows: Cytotoxicity / cell viability by MTT assay in LPS-induced RAW 264.7 cells. The format is cell-based. The following applies: for Cytotoxicity: MTT, concentration at which cell viability was lower than 80%, maximum concentration 200 μM. As to the method:
as §1, §2
The cell viability was measured by the MTT assay. An MTT solution (1 mg/mL) was added to each well and incubated for 4 h at 37 °C. Then, the MTT solution was removed, and the formazan production was dissolved with DMSO. The absorbance was measured at 570 nm using a microplate reader (BioTeK, Santa Clara, CA, USA).

For another series, the system named is NO. Set-up: method as in PMID 32163787. The following applies: read-out: NO inhibitory activity IC50; cited from earlier work.
The mark [2] stands for this setting: RAW264.7, pre-treated 24 h, then 100 ng/mL LPS 24 h, Mean ± SD from three independent experiments, tested 25-200 μM, read-out: IC50 of NO Inhibition.

Consider `COc1ccc2c(c1)NC(=O)[C@]2(O)CC#N` [Compound 1, (+)-(S)-2-(3-hydroxy-6-methoxy-2-oxoindolin-3-yl)acetonitrile], for which, in series [1], the “inhibition of nitric oxide production (in words)” value (shortened to “inhibition … (in words)”) is recorded as “inhibited nitric oxide production” and the “nitric oxide inhibition activity compared with indomethacin” value is “as strong as indomethacin”. Also, in series [1] (setting [2]), the IC50 turned out to be 186 ± 22.5 µM. The same compound yielded a Cytotoxicity in the series on RAW 264.7 cells above 200 µM.
With `COc1ccc2c(CC#N)c([S+](C)[O-])[nH]c2c1` (stereo not drawn) [Compound 2, 2-(6-methoxy-2-(methylsulfinyl)-1H-indol-3-yl)acetonitrile], in series [1], the “inhibition … (in words)” value is “inhibited nitric oxide production” and the “nitric oxide inhibition activity compared with indomethacin” value is listed as “as strong as indomethacin”. For the same compound, in series [1] (setting [2]), the IC50 is 187 ± 23.1 µM. Moreover, the Cytotoxicity in the series with RAW 264.7 cells was above 200 µM.
Regarding `CO/N=C(/Cc1c[nH]c2cc(OC)ccc12)SC` [Compound 3, methyl (Z)-N-methoxy-2-(6-methoxy-1H-indol-3-yl)ethanimidothioate], the Cytotoxicity entry in the series on RAW 264.7 cells is reported as “toxicity at 100 μM”.
As to `CO/N=C(\SC)C(=O)c1c[nH]c2cc(OC)ccc12` [Compound 4, methyl (Z)-N-methoxy-2-(6-methoxy-1H-indol-3-yl)-2-oxoethanimidothioate], the IC50 in series [1] (RAW264.7, above the 200 μM maximum tested concentration, Mean ± SD, read-out: IC50 of NO Inhibition (value in parentheses, above the maximum tested concentration)) was above 200 µM; in series [1] (setting [2]), above 200 µM. The compound further yielded a Cytotoxicity in the series on RAW 264.7 cells above 200 µM.
Turning to `CO/N=C(\C=C1\C(=O)Nc2cc(OC)ccc21)SC` [Compound 5, methyl (E)-N-methoxy-2-[(E)-6-methoxy-2-oxindolin-3-ylidene]ethanimidothiolate], in series [1], the “inhibition … (in words)” value is “inhibited nitric oxide production” and the “nitric oxide inhibition activity compared with indomethacin” value is reported as “stronger than indomethacin”. In series [1] (setting [2]), the IC50 was 92.2 ± 8.9 µM. For the same compound, the Cytotoxicity with RAW 264.7 cells is above 200 µM.
`COc1ccc2cc(C3=C(c4c[nH]c5cccc(OC)c45)N=C3SC)[nH]c2c1` [Compound 6, 4-methoxy-3-[3-(6-methoxy-1H-indol-2-yl)-2-(methylthio)azet-4-yl]-1H-indole]: the “cytotoxicity (in words)” value in the series with RAW 264.7 cells (IC50 of NO inhibition could not be determined) is on record as “too cytotoxic”. Also, the Cytotoxicity entry in the series with RAW 264.7 cells is “toxicity at 100 μM”.
Regarding `COc1ccc2cc(C3=C(c4c[nH]c5cccc(OC)c45)N=C3[S+](C)[O-])[nH]c2c1` (stereo not drawn) [Compound 7, 4-methoxy-3-[3-(6-methoxy-1H-indol-2-yl)-2-(methylsulfinyl)azet-4-yl]-1H-indole], in series [1], the “inhibition … (in words)” value is listed as “inhibited nitric oxide production” and the “nitric oxide inhibition activity compared with indomethacin” value is reported as “stronger than indomethacin”. Moreover, in series [1] (setting [2]), the IC50 turned out to be 31.1 ± 1.8 µM. Also, in the series with RAW 264.7 cells, the Cytotoxicity entry is “toxicity at 100 μM”.
The like results for `COc1cccc2[nH]c3c(C#N)c4c(cc3c12)[nH]c1cc(O)ccc14` [Compound 8, 9-hydroxy-1-methoxy-5,11-dihydroindolo[3,2-b]carbazole-6-carbonitrile] were, in that order, “inhibited nitric oxide production”, “stronger than indomethacin”, 56.7 ± 3.8 µM and above 200 µM.
On to `COc1ccc2c(c1)c(CC(=O)O)c(C)n2C(=O)c1ccc(Cl)cc1` [indomethacin, reference compound], for which the IC50 in series [1] (setting [2]) turned out to be 150 ± 16 µM. This compound came in with a Cytotoxicity in the series with RAW 264.7 cells above 200 µM.
As for isatindigoside F, the IC50 in the series with NO is 70.3 ± 6.9 µM.
Take isatindigoside G: the IC50 in the series with NO was 67.3 ± 5.5 µM.

The values are drawn from paper PMC9656735, “Eight Indole Alkaloids from the Roots of Maerua siamensis and Their Nitric Oxide Inhibitory Effects” (Molecules, 2022).
